Results published in ChEMBL document CHEMBL1201862, “PubChem BioAssay data set” (2004).
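Results reflect a 48-hour exposure of cells in 96-well plates to compound at five concentrations. GI50: concentration for 50% inhibition of growth.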 Active and inactive are the calls of the source. Rule as the data show it: active = GI50 up to about 1.1 µM and inactive = higher.

Key:
Experiment in all cases: growth of human tumour cells (NCI), 48 h
[1] = system: NCI-H23
[2] = system: HT-29
[3] = system: SN12C
[4] = system: ACHN
[5] = system: M14
[6] = system: RPMI-8226
[7] = system: MCF7
[8] = system: K562
[9] = system: T47D
[10] = system: U-251
[11] = system: UACC-62
[12] = system: HCT-15
[13] = system: 786-0
[14] = system: A498
[15] = system: TK-10
[16] = system: HOP-62
[17] = system: NCI-H460
[18] = system: OVCAR-4
[19] = system: NCI/ADR-RES
[20] = system: MDA-N
[21] = system: OVCAR-8
[22] = system: RXF 393
[23] = system: DU-145
[24] = system: A549
[25] = system: SR
[26] = system: SK-OV-3
[27] = system: SF-295
[28] = system: Hs-578T
[29] = system: NCI-H226
[30] = system: NCI-H522
[31] = system: CCRF-CEM
[32] = system: SK-MEL-5
[33] = system: MDA-MB-231
[34] = system: EKVX
[35] = system: BT-549
[36] = system: MOLT-4
[37] = system: OVCAR-3
[38] = system: OVCAR-5
[39] = system: SK-MEL-28
[40] = system: HOP-92
[41] = system: SW-620
[42] = system: KM12
[43] = system: CAKI-1
[44] = system: MDA-MB-435
[45] = system: SF-268
[46] = system: PC-3
[47] = system: SNB-19
[48] = system: SK-MEL-2
[49] = system: SF-539
[50] = system: UO-31
[51] = system: Malme-3M
[52] = system: HCT-116
[53] = system: IGROV-1
[54] = system: LOX IMVI
[55] = system: HCC 2998
[56] = system: UACC-257
[57] = system: SNB-75
[58] = system: COLO 205
[59] = system: HL-60

With `COc1cc(CCNC2=CC(=O)c3nc[nH]c3C2=O)ccc1O` as the compound, how does the GI50 [1] read?
Its GI50 is 20.7 µM (inactive).

What about the GI50 [2] of the same compound?
The GI50 was 23.6 µM (inactive).

What about the GI50 [3] of the same compound?
The GI50 was 19.1 µM (inactive).

What about the GI50 [4] of the same compound?
The GI50 was 30.3 µM (inactive).

What about the GI50 [5] of the same compound?
The GI50 was 17.5 µM (inactive).

What about the GI50 [6] of the same compound?
The GI50 was 29.4 µM (inactive).

And the GI50 [7]?
The GI50 was 17.1 µM (inactive).

And the GI50 [8]?
The GI50 was 34.1 µM (inactive).

What about the GI50 [9] of the same compound?
Its GI50 is 20.7 µM (inactive).

What about the GI50 [10] of the same compound?
The GI50 was 23.7 µM (inactive).

What about the GI50 [11] of the same compound?
The GI50 was 19.2 µM (inactive).

What about the GI50 [12] of the same compound?
Its GI50 is 33 µM.

And the GI50 [13]?
The GI50 was 35.7 µM (inactive).

And the GI50 [14]?
The GI50 was 34.4 µM (inactive).

And the GI50 [15]?
Its GI50 is 36.1 µM (inactive).

What about the GI50 [16] of the same compound?
Its GI50 is 40.1 µM (inactive).

What about the GI50 [17] of the same compound?
The GI50 was 25.7 µM (inactive).

What about the GI50 [18] of the same compound?
Its GI50 is 15.4 µM (inactive).

And the GI50 [19]?
Its GI50 is > 100 µM (inactive).

And the GI50 [20]?
Its GI50 is 18 µM (inactive).

And the GI50 [21]?
The GI50 was 19.6 µM (inactive).

What about the GI50 [22] of the same compound?
Its GI50 is 43.2 µM (inactive).

And the GI50 [23]?
The GI50 was 20 µM (inactive).

What about the GI50 [24] of the same compound?
The GI50 was 26.6 µM (inactive).

What about the GI50 [25] of the same compound?
The GI50 was 30.7 µM (inactive).

What about the GI50 [26] of the same compound?
Its GI50 is 34.4 µM (inactive).

And the GI50 [27]?
Its GI50 is 28.4 µM (inactive).

And the GI50 [28]?
Its GI50 is 25.2 µM (inactive).

And the GI50 [29]?
The GI50 was 31.5 µM (inactive).

What about the GI50 [30] of the same compound?
The GI50 was 22.7 µM (inactive).

And the GI50 [31]?
Its GI50 is 33.3 µM (inactive).

And the GI50 [32]?
The GI50 was 14.4 µM (inactive).

What about the GI50 [33] of the same compound?
Its GI50 is 30.9 µM (inactive).

And the GI50 [34]?
Its GI50 is 21.2 µM (inactive).

What about the GI50 [35] of the same compound?
The GI50 was 24.7 µM (inactive).

And the GI50 [36]?
Its GI50 is 32.6 µM (inactive).

And the GI50 [37]?
Its GI50 is 3.16 µM (inactive).

And the GI50 [38]?
The GI50 was 18.6 µM (inactive).

And the GI50 [39]?
The GI50 was 26.7 µM (inactive).

And the GI50 [40]?
The GI50 was 25.3 µM (inactive).

What about the GI50 [41] of the same compound?
Its GI50 is 23.8 µM (inactive).

What about the GI50 [42] of the same compound?
The GI50 was 27.3 µM (inactive).

And the GI50 [43]?
Its GI50 is 48.3 µM (inactive).

And the GI50 [44]?
Its GI50 is 17.6 µM (inactive).

What about the GI50 [45] of the same compound?
The GI50 was 38.9 µM (inactive).

And the GI50 [46]?
The GI50 was 26.4 µM (inactive).

What about the GI50 [47] of the same compound?
The GI50 was 18.2 µM (inactive).

What about the GI50 [48] of the same compound?
Its GI50 is 21.4 µM (inactive).

And the GI50 [49]?
Its GI50 is 34.5 µM (inactive).

What about the GI50 [50] of the same compound?
The GI50 was 40.3 µM (inactive).

And the GI50 [51]?
Its GI50 is 13.1 µM (inactive).

What about the GI50 [52] of the same compound?
The GI50 was 19.6 µM (inactive).

And the GI50 [53]?
Its GI50 is 23.2 µM (inactive).

And the GI50 [54]?
The GI50 was 19 µM (inactive).

And the GI50 [55]?
The GI50 was 20.7 µM (inactive).

What about the GI50 [56] of the same compound?
The GI50 was 19.8 µM (inactive).

What about the GI50 [57] of the same compound?
The GI50 was 19 µM (inactive).

What about the GI50 [58] of the same compound?
Its GI50 is 22.6 µM (inactive).

And the GI50 [59]?
Its GI50 is 25.6 µM (inactive).

How did the GI50 [1] turn out when `Brc1ccc(CCNCCN2CCCCC2)cc1` was run?
Its GI50 is 16.4 µM (inactive).

What about the GI50 [2] of the same compound?
The GI50 was 4 µM (inactive).

And the GI50 [3]?
The GI50 was 25.9 µM (inactive).

What about the GI50 [4] of the same compound?
Its GI50 is 20.6 µM (inactive).

And the GI50 [5]?
The GI50 was 15.6 µM (inactive).

And the GI50 [6]?
The GI50 was 37.7 µM (inactive).

And the GI50 [7]?
The GI50 was 15.7 µM (inactive).

What about the GI50 [8] of the same compound?
Its GI50 is 4.1 µM (inactive).

What about the GI50 [9] of the same compound?
The GI50 was 15.6 µM (inactive).

And the GI50 [10]?
Its GI50 is 18.4 µM (inactive).

What about the GI50 [12] of the same compound?
The GI50 was 18.1 µM.

What about the GI50 [13] of the same compound?
The GI50 was 14.1 µM (inactive).

And the GI50 [14]?
The GI50 was 18 µM (inactive).

What about the GI50 [15] of the same compound?
The GI50 was 15.5 µM (inactive).

What about the GI50 [16] of the same compound?
Its GI50 is 20.4 µM (inactive).

And the GI50 [17]?
The GI50 was 14.7 µM (inactive).

What about the GI50 [18] of the same compound?
The GI50 was 19.3 µM (inactive).

And the GI50 [19]?
The GI50 was 21.1 µM (inactive).

What about the GI50 [20] of the same compound?
Its GI50 is 10.7 µM (inactive).

What about the GI50 [21] of the same compound?
Its GI50 is 16.5 µM (inactive).

And the GI50 [22]?
Its GI50 is 33.6 µM (inactive).

And the GI50 [23]?
Its GI50 is 35.6 µM (inactive).

And the GI50 [24]?
Its GI50 is 16.4 µM (inactive).

What about the GI50 [25] of the same compound?
The GI50 was > 100 µM (inactive).

And the GI50 [26]?
Its GI50 is 21.2 µM (inactive).

What about the GI50 [27] of the same compound?
Its GI50 is 18.3 µM (inactive).

What about the GI50 [28] of the same compound?
Its GI50 is 20.3 µM (inactive).

And the GI50 [29]?
The GI50 was 37.8 µM (inactive).

And the GI50 [30]?
Its GI50 is 16.4 µM (inactive).

What about the GI50 [31] of the same compound?
The GI50 was 14.2 µM (inactive).

What about the GI50 [32] of the same compound?
Its GI50 is 8.07 µM (inactive).

What about the GI50 [33] of the same compound?
Its GI50 is 8.05 µM (inactive).

And the GI50 [34]?
Its GI50 is 33.1 µM (inactive).

And the GI50 [35]?
The GI50 was 15.7 µM (inactive).

And the GI50 [36]?
Its GI50 is 62.1 µM (inactive).

And the GI50 [37]?
Its GI50 is 15.4 µM (inactive).

What about the GI50 [38] of the same compound?
The GI50 was 17 µM (inactive).

And the GI50 [39]?
Its GI50 is 11.8 µM (inactive).

And the GI50 [40]?
The GI50 was 10.8 µM (inactive).

What about the GI50 [41] of the same compound?
The GI50 was 17 µM (inactive).

And the GI50 [42]?
Its GI50 is 16.6 µM (inactive).

What about the GI50 [43] of the same compound?
The GI50 was 14.1 µM (inactive).

What about the GI50 [44] of the same compound?
Its GI50 is 5.47 µM (inactive).

What about the GI50 [45] of the same compound?
The GI50 was 15.5 µM (inactive).

What about the GI50 [46] of the same compound?
Its GI50 is 15.6 µM (inactive).

And the GI50 [47]?
Its GI50 is 17.3 µM (inactive).

And the GI50 [48]?
The GI50 was 19.4 µM (inactive).

And the GI50 [49]?
Its GI50 is 10.9 µM (inactive).

And the GI50 [50]?
The GI50 was 12.2 µM (inactive).

And the GI50 [51]?
The GI50 was 17.7 µM (inactive).

What about the GI50 [52] of the same compound?
The GI50 was 12.1 µM (inactive).

And the GI50 [53]?
Its GI50 is 17.1 µM (inactive).

What about the GI50 [54] of the same compound?
Its GI50 is 14.1 µM (inactive).

What about the GI50 [55] of the same compound?
The GI50 was 14.5 µM (inactive).

What about the GI50 [56] of the same compound?
Its GI50 is 14.8 µM (inactive).

And the GI50 [57]?
The GI50 was 12.8 µM (inactive).

What about the GI50 [58] of the same compound?
Its GI50 is 12.9 µM (inactive).

What about the GI50 [59] of the same compound?
The GI50 was 33 µM (inactive).
